The source of these data is patent US8901035B2, “Herbicidal compositions comprising 4-amino-3-chloro-5-fluoro-6-(4-chloro-2-fluoro-3-methoxyphenyl) pyridine-2-carboxylic acid or a derivative thereof and cellulose biosynthesis inhibitor herbicides” (Dow AgroSciences LLC, priority 2012, dated 2014).

The structures appear in SMILES notation.

Format in all cases: in vivo
The subject of assay [1] is Ipomoea hederacea Jacq. (IPOHE). Description: Postemergence foliar-applied herbicidal mixtures, weed control in direct seeded rice (greenhouse). The text has this: (§1) Seeds or nutlets of the desired test plant species were planted in a soil matrix prepared by mixing a loam or sandy loam soil (e.g., 28.6 percent silt, 18.8 percent clay, and 52.6 percent sand, with a pH of about 5.8 and an organic matter content of about 1.8 percent) and calcareous grit in an 80 to 20 ratio. The soil matrix was contained in plastic pots with a volume of 1 quart and a surface area of 83.6 square centimeters (cm^2). When required to ensure good germination and healthy plants, a fungicide treatment and/or other chemical or physical treatment was applied. The plants were grown for 8-22 days in a greenhouse with an approximate 14 h photoperiod which was maintained at about 29° C. during the day and 26° C. during the night. Nutrients (Peters Excel® 15-5-15 5-Ca 2-Mg and iron chelate) were applied in the irrigation solution as needed and water was added on a regular basis. Supplemental lighting was provided with overhead metal halide 1000-Watt lamps as necessary. The plants were employed for testing when they reached the first through fourth true leaf stage.
(§2) Treatments consisted of the acid or esters of 4-amino-3-chloro-5-fluoro-6-(4-chloro-2-fluoro-3-methoxy-phenyl) pyridine-2-carboxylic acid (Compound A), each formulated as an SC (suspension concentrate), and various herbicidal components alone and in combination. Forms of compound A were applied on an acid equivalent basis.
(§3) Other herbicidal components were applied on an active ingredient basis and included cellulose biosynthesis-inhibiting (CBI) herbicides isoxaben formulated as Gallery® 75DF and indaziflam formulated as Specticle® 20WSP.
(§4) Treatment requirements were calculated based upon the rates being tested, the concentration of active ingredient or acid equivalent in the formulation, and a 12 mL application volume at a rate of 187 L/ha.
(§5) For treatments comprised of formulated compounds, measured amounts of compounds were placed individually in 25 mL glass vials and diluted in a volume of 1.25% (v/v) Agri-Dex® crop oil concentrated to obtain 12× stock solutions. […] Application solutions were prepared by adding an appropriate amount of each stock solution (e.g., 1 mL) and diluted to the appropriate final concentrations with the addition of 10 mL of an aqueous mixture of 1.25% (v/v) crop oil concentrate so that the final spray solutions contained 1.25+/−0.05% (v/v) crop oil concentrate.
(§6) All stock solutions and applications solutions were visually inspected for compound compatibility prior to application. Spray solutions were applied to the plant material with an overhead Mandel track sprayer equipped with a 8002E nozzles calibrated to deliver 187 L/ha over an application area of 0.503 m^2 at a spray height of 18 to 20 inches (46 to 50 cm) above average plant canopy height. Control plants were sprayed in the same manner with the solvent blank.
(§7) The treated plants and control plants were placed in a greenhouse as described above and watered by sub-irrigation to prevent wash-off of the test compounds. After approximately 3 weeks, the condition of the test plants as compared with that of the untreated plants was determined visually and scored on a scale of 0 to 100 percent where 0 corresponds to no injury or growth inhibition and 100 corresponds to complete kill.
(§8) Colby's equation was used to determine the herbicidal effects expected from the mixtures (Colby, S. R. 1967. Calculation of the synergistic and antagonistic response of herbicide combinations. Weeds 15:20-22).
(§9) The following equation was used to calculate the expected activity of mixtures containing two active ingredients, A and B: Expected=A+B−(A×B/100)
(§10) A=observed efficacy of active ingredient A at the same concentration as used in the mixture.
(§11) B=observed efficacy of active ingredient B at the same concentration as used in the mixture.

Assay [2] concerns Leptochloa chinensis (L.) Nees (LEFCH). The assay is described as above.
Excerpt: as §1, §2, §3, §4, §5, §6, §7, §8, §9, §10, §11

Assay [3] deals with Amaranthus retroflexus L. (AMARE). The experiment in a line: Postemergence herbicidal activity of mixtures in cereal crops in the greenhouse. As to the method:
(§12) Seeds of the desired test plant species were planted in Sun Gro MetroMix 306 planting mixture, which typically has a pH of 6.0 to 6.8 and an organic matter content of about 30 percent, in plastic pots with a surface area of 103.2 square centimeters (cm^2). When required to ensure good germination and healthy plants, a fungicide treatment and/or other chemical or physical treatment was applied. The plants were grown for 7-36 days in a greenhouse with an approximate 14 hour photoperiod which was maintained at about 18° C. during the day and about 17° C. during the night. Nutrients and water were added on a regular basis and supplemental lighting was provided with overhead metal halide 1000-Watt lamps as necessary. The plants were employed for testing when they reached the second or third true leaf stage.
(§13) Treatments consisted of the benzyl ester of 4-amino-3-chloro-5-fluoro-6-(4-chloro-2-fluoro-3-methoxy-phenyl)pyridine-2-carboxylic acid (Compound A), formulated as an SC, a second cereal herbicide alone and then both in combination.
(§14) Other herbicidal components were applied on an active ingredient basis and included cellulose biosynthesis inhibiting herbicides.
(§15) Measured aliquots of benzyl ester of 4-amino-3-chloro-5-fluoro-6-(4-chloro-2-fluoro-3-methoxy-phenyl)pyridine-2-carboxylic acid (Compound A) were placed in 25 milliliter (mL) glass vials and diluted in a volume of 1.25% (v/v) Agri-Dex® crop oil concentrate to obtain stock solutions. Compound requirements are based upon a 12 mL application volume at a rate of 187 liters per hectare (L/ha). Spray solutions of the second cereal herbicide and experimental compound mixtures were prepared by adding the stock solutions to the appropriate amount of dilution solution to form 12 mL spray solution with active ingredients in two- and three-way combinations. Formulated compounds were applied to the plant material with an overhead Mandel track sprayer equipped with an 8002E nozzle calibrated to deliver 187 L/ha over an application area of 0.503 square meters (m^2) at a spray height of 18 inches (46 cm) above average plant canopy. Control plants were sprayed in the same manner with the solvent blank.
(§16) The treated plants and control plants were placed in a greenhouse as described above and watered by sub-irrigation to prevent wash-off of the test compounds. After 20-22 days, the condition of the test plants as compared with that of the control plants was determined visually and scored on a scale of 0 to 100 percent where 0 corresponds to no injury and 100 corresponds to complete kill.
as §8, §9, §10, §11

Assay [4] has as its system Chenopodium album L. (CHEAL). Described as above. As to the method:
as §12, §13, §14, §15, §16, §8, §9, §10, §11

In assay [5] the test system is Cirsium arvense (L.) Scop. (CIRAR). The description is as above. As to the method: as §12, §13, §14, §15, §16, §8, §9, §10, §11
For assay [6], the system named is Galium aparine L. (GALAP). Described as above. On the procedure:
as §12, §13, §14, §15, §16, §8, §9, §10, §11

For assay [7], the system named is Sinapis arvensis L. (SINAR). Described as above. On the procedure:
as §12, §13, §14, §15, §16, §8, §9, §10, §11

The subject of assay [8] is Stellaria media (L.) Vill. (STEME). The assay is described as above. As to the method: as §12, §13, §14, §15, §16, §8, §9, §10, §11
Where [9] appears, read: Compound A Benzyl Ester 4.38 g ae/ha alone.
[10] abbreviates: Compound A Benzyl Ester 8.75 g ae/ha alone.
The mark [11] stands for this setting: Compound A Benzyl Ester 17.5 g ae/ha alone.
Where [12] appears, read: Compound A Benzyl Ester 2.5 g ai/ha alone.
The mark [13] stands for this setting: Compound A Benzyl Ester 5 g ai/ha alone.
Where [14] appears, read: Compound A Benzyl Ester 10 g ai/ha alone.

Turning to `COc1c(Cl)ccc(-c2nc(C(=O)OCc3ccccc3)c(Cl)c(N)c2F)c1F` [Compound A Benzyl Ester, benzyl ester of 4-amino-3-chloro-5-fluoro-6-(4-chloro-2-fluoro-3-methoxy-phenyl)pyridine-2-carboxylic acid], the figures for the “Visual Weed Control (%) - 20 DAA Obs” value in assay [1] (setting [9]), in assay [1] (setting [10]) and in assay [1] (setting [11]) were 10%, 10% and 15%, respectively. Besides, the “Visual Weed Control (%) - 21 DAA Obs” value in assay [2] (setting [9]) came to 30%; in assay [2] (setting [10]), 35%; in assay [2] (setting [11]) it was 35%; in assay [5] (setting [13]) it was 39%; in assay [5] (setting [14]), 60%; in assay [6] (setting [12]) it was 55%. For the same compound, the “Visual Weed Control (%) - 21 DAA Obs” value in assay [6] (setting [13]) stood at 66%; in assay [6] (setting [14]), 77%; in assay [8] (setting [12]), 25%; in assay [8] (setting [13]) it was 25%; in assay [8] (setting [14]), 27%. Also, the “Visual Weed Control (%) - 21 DAA AMARE Obs” value turned out to be 20% in assay [3] (setting [12]) and 38% in assay [3] (setting [13]). Besides, the “Visual Weed Control (%) - 21 DAA CHEAL Obs” value was found to be 50% in assay [4] (setting [12]) and 58% in assay [4] (setting [13]). Besides, the “Visual Weed Control (%) - 21 DAA SINAR Obs” value in assay [7] (setting [12]) is 70%; in assay [7] (setting [13]), 73%.

Take `CCC(C)(CC)c1cc(NC(=O)c2c(OC)cccc2OC)on1` [Isoxaben, N-[3-(1-ethyl-1-methylpropyl)-5-isoxazolyl]-2,6-dimethoxybenzamide, reference compound]: the “Visual Weed Control (%) - 20 DAA Obs” value in assay [1] (Isoxaben 140 g ai/ha alone) is reported as 15%; in assay [1] (Isoxaben 280 g ai/ha alone), 25%; in assay [2] (Isoxaben 140 g ai/ha alone) it was 0%; in assay [2] (Isoxaben 280 g ai/ha alone) it was 0%. In addition, the “Visual Weed Control (%) - 21 DAA AMARE Obs” value in assay [3] (Isoxaben 31.25 g ai/ha alone) turned out to be 0%; in assay [3] (Isoxaben 62.5 g ai/ha alone), 8%. The “Visual Weed Control (%) - 21 DAA CHEAL Obs” value in assay [4] (Isoxaben 31.25 g ai/ha alone) and in assay [4] (Isoxaben 62.5 g ai/ha alone) was 5% throughout. Besides, the “Visual Weed Control (%) - 21 DAA Obs” value in assay [5] (Isoxaben 31.25 g ai/ha alone) is 3%; in assay [5] (Isoxaben 62.5 g ai/ha alone) it was 13%; in assay [5] (Isoxaben 125 g ai/ha alone), 17%; in assay [6] (Isoxaben 31.25 g ai/ha alone) it was 0%; in assay [6] (Isoxaben 62.5 g ai/ha alone), 8%; in assay [6] (Isoxaben 125 g ai/ha alone), 12%. The “Visual Weed Control (%) - 21 DAA Obs” value in assay [8] (Isoxaben 31.25 g ai/ha alone) and in assay [8] (Isoxaben 62.5 g ai/ha alone) was 5% each time. Besides, the “Visual Weed Control (%) - 21 DAA SINAR Obs” value in assay [7] (Isoxaben 31.25 g ai/ha alone) and in assay [7] (Isoxaben 62.5 g ai/ha alone) was 13% throughout.
